Results: US5399588A, “Naphthalenylmethyl cycloalkenone acetic acids and analogs thereof useful as aldose reductase inhibitors” (American Home Products Corporation, priority 1993, dated 1995)
Blank lines part the entries; values can stand above or below the molecule they belong to.

Columns and labels:
[1] = target: T1, bovine lens aldose reductase (Bos taurus, UniProt P16116); assay: In vitro Inhibition of Aldose Reductase in the Bovine Lens; type: biochemical; settings: DL-glyceraldehyde as substrate; for inhibition at 10 µM: 10^-5 M; for inhibition at 0.04 µM: 4 × 10^-8 M; for inhibition at 1 µM: 10^-6 M
T1 construct: in the preparation of the enzyme from bovine lens; from tissue; host or cells: bovine lens
Protocol: II. In vitro Inhibition of Aldose Reductase in the Bovine Lens
The aldose reductase inhibiting effects of the compounds of formula (I) were also tested by employing an in vitro testing procedure similar to that described by S. Hayman and J. H. Kinoshita, J. Biol. Chem., 240, 877 (1965) wherein the ability of the invention compounds to inhibit bovine lens aldose reductase with DL-glyceraldehyde as the substrate was determined. In the present case the procedure of Hayman and Kinoshita was modified in that the final chromatography step was omitted in the preparation of the enzyme from bovine lens.

[2] = test system: aldose reductase; assay: In vivo Inhibition of Aldose Reductase in Galactosemic Rats; parameters: species or system male rats, Sprague-Dawley strain; settings: four days, polyol accumulation
Description: I. In vivo Inhibition of Aldose Reductase in Galactosemic Rats
The aldose reductase inhibiting property of the compounds of this invention and the utilization of the compounds in preventing, diminishing and alleviating diabetic complications are demonstrable in experiments using galactosemic rats, see Dvornik et al., Science, 182, 1146 (1973).
(a) Four or more groups of six male rats, 50-70 g, Sprague-Dawley strain, were used. The first group, the control group, was fed a mixture of laboratory chow (rodent Laboratory Chow, Purina) and glucose at 20% (w/w %) concentration. An untreated galactosemic group was fed a similar diet in which galactose was substituted for glucose. The third group was fed a diet prepared by mixing a given amount of the test compound with the galactose containing diet. The concentration of galactose in the diet of the treated groups was the same as that for the untreated galactosemic group.
(b) After four days, the animals were killed by euthanization. Both the lens and sciatic nerve were removed, weighed and stored frozen for polyol determination.
(c) The polyol determination was performed by a modification of the procedure of M. Kraml and L. Cosyns, Clin. Biochem., 2, 373 (1969). Only two minor reagent changes were made: (a) the rinsing mixture was an aqueous 5% (w/v) trichloroacetic acid solution and (b) the stock solution was prepared by dissolving 25 mg of dulcitol in 100 mL of an aqueous trichloroacetic acid solution. [N.B.: For each experiment the average value found in the tissue from rats fed the glucose diet was subtracted from the individual values found in the corresponding tissue in galactose-fed rats to obtain the amount of polyol accumulated].

[3] = 100 mg/kg/day in galactose-containing diet

inhibition at 10 µM [1]: 84%
Compound: COc1ccc2c(CC3=C(CC(=O)O)CCC3=O)cccc2c1C(F)(F)F [Example 14, [2-(6-Methoxy-5-trifluoromethyl-naphthalen-1-ylmethyl)-3-oxo-cyclopent-1-enyl]-acetic acid]

inhibition at 10 µM [1]: 51%
Compound: COc1ccc2c(CC3=C(CC(=O)O)CCCC3=O)cccc2c1C(F)(F)F [Example 13, [2-(6-methoxy-5-trifluoromethyl-naphthalen-1-ylmethyl)-3-oxo-cyclohex-1-enyl]-acetic acid]

inhibition at 1 µM [1]: 61%
Compound: O=C(O)COC1=C(Cc2ccc3ccccc3c2)C(=O)CC1 [Example 12, [[2-(2-Naphthalen-2-ylmethyl)-3-oxo-cyclopent-1-enyl]oxy]-acetic acid]

inhibition at 0.04 µM [1]: 70%
Compound: O=C(O)COC1=C(Cc2ccc3c(Cl)cccc3c2)C(=O)CC1 [Example 11, [[2-(5-chloro-naphthalen-2-ylmethyl)-3-oxo-cyclopent-1-enyl]oxy]-acetic acid]

The next lines start with the molecule.

Compound: O=C(O)COC1=C(Cc2ccc3c(Br)cccc3c2)C(=O)CCC1 [Example 10, [[2-(5-bromo-naphthalen-2-ylmethyl)-3-oxo-cyclohex-1-enyl]oxy]-acetic acid]
inhibition at 0.04 µM [1]: 86%

Compound: O=C(O)COC1=C(Cc2ccc3c(Cl)cccc3c2)C(=O)CCC1 [Example 8, [[2-(5-chloro-naphthalen-2-ylmethyl)-3-oxo-1-cyclohex-1-enyl]oxy]acetic acid]
inhibition at 0.04 µM [1]: 81%

Compound: COc1ccc2cc(CC3=C(CC(=O)O)CCCC3=O)ccc2c1Br [Example 2, [2-(5-bromo-6-methoxy-naphthalen-2-ylmethyl)-3-oxocyclohex-1-enyl] acetic acid]
% Inhibition of aldose reductase [2, 3]: 71%
inhibition at 0.1 µM ([1]; 10^-7 M): 50%

Compound: COC(=O)NC(=O)CC1=C(Cc2ccc3c(Br)cccc3c2)C(=O)CCC1 [Example 5, [[2-(5-bromo-naphthalen-2-ylmethyl)-3-oxo-cyclohex-1-enyl]acetyl]carbamic acid methyl ester]
% Inhibition of aldose reductase [2, 3]: 45%
inhibition at 10 µM [1]: 27%

Compound: O=C(O)COC1=C(Cc2ccc3ccccc3c2)C(=O)CCC1 [Example 9, [[2-(naphthalen-2-ylmethyl)-3-oxo-1-cyclohex-1-enyl]oxy]acetic acid]
inhibition at 1 µM [1]: 87%

Compound: O=C(O)CC1=C(Cc2ccc3c(Br)cccc3c2)C(=O)CCC1 [Example 1, [2-(5-Bromo-naphthalen-2-ylmethyl)-3-oxo-cyclohex-1-enyl]-acetic acid]
% Inhibition of aldose reductase [2, 3]: 68%
inhibition at 0.04 µM [1]: 78%

Compound: O=C(O)CC1=C(Cc2ccc3ccccc3c2)C(=O)CCC1 [Example 7, [2-(naphthalen-2-ylmethyl)-3-oxo-cyclohex-1-enyl]-acetic acid]
inhibition at 1 µM [1]: 41%

Compound: COC(=O)NC(=O)CC1=C(Cc2ccc3c(Cl)cccc3c2)C(=O)CC1 [Example 6, [2-[2-(5-chloro-naphthalen-2-ylmethyl)-3-oxo-cyclopent-1-enyl]-acetyl]carbamic acid methyl ester]
inhibition at 10 µM [1]: 19%

Compound: O=C(O)CC1=C(Cc2ccc3c(Cl)cccc3c2)C(=O)CC1 [Example 4, [2-(5-chloro-naphthalen-2-ylmethyl)-3-oxo-cyclopen-1-enyl]-acetic acid]
% Inhibition of aldose reductase [2, 3]: 37%
inhibition at 0.04 µM [1]: 62%

Compound: O=C(O)CC1=C(Cc2ccc3c(Cl)cccc3c2)C(=O)CCC1 [Example 3, [2-(5-chloro-naphthalen-2-ylmethyl)-3-oxo-cyclohex-1-enyl]-acetic acid]
% Inhibition of aldose reductase ([2]; 105 mg/kg/day in galactose-containing diet): 52%
% Inhibition of aldose reductase ([2]; 202 mg/kg/day in galactose-containing diet): 73%
inhibition at 0.04 µM [1]: 79%
